From patent US20050107394A1, “Novel use of selective pde5 inhibitors” (priority 2001, published 2005)
Where “and” joins values, the source holds several entries; their conditions need not be identical. Identical values can stand only once.

Legend:
[1] = tested on: bleomycin-induced pulmonary fibrosis in rabbits; assay: Shunting by MIGET in bleomycin-induced pulmonary fibrosis; type: in vivo, rabbit; settings: for shunting (MIGET), level reached: PGI 6 ng/kg/min systemic, NO 20 ppm inhaled, sildenafil 1 mg/kg oral; for effect on shunting: NO inhaled, sildenafil oral
Protocol: FIG. 1: Result of determination of shunting with the aid of the model of bleomycin-induced pulmonary fibrosis in rabbits. The measurements by the inert gas exchange method (MIGET) [Wagner et al., J Appl Physiol. 1974;36:588-99] reveal that the shunting was increased by 15% in this model, compared with the untreated control. Systemically administered PGI [6 ng/kg body weight/min] (PGI, prostacyclin) increased the shunting to about 30%. […] Shunting was reduced to 6% by oral administration of the PDE5 inhibitor sidenafil [1 mg/kg body weight].
Healthy rabbits of both sexes were pretreated orally with a gyrase inhibitor (Baytril®) for one week. Ten animals pretreated in this way were not treated with bleomyin and served as control, and, on the day of exposure, the others were anaesthetized with a Ketanest®/Rompun® mixture, intubated intratracheally and ventilated mechanically. An ultrasonic nebulizer (MMAD 2.5 μm) was used to administer by inhalation exactly 1.8 U/kg of bodyweight of bleomycin under volume-controlled ventilation. After 4, 8, 16, 24, 32 and 64 days (in each case n≧5) post exposure, the animals were again anaesthetized, provided with an arterial access (right carotid artery) and underwent bodyweight-adapted ventilation via a tracheostomy in a volume-controlled method. The arterial pO2 and pCO2, and the static compliance of the lung were measured (by recording the intrathoracic pressure and with slow inflation/deflation manoeuvres). Subsequently, the lungs of these animals were dissected and perfused with a Krebs Hensefeit buffer. Under these conditions, the capillary filtraton coefficient (cfc) was then found from the weight gain of the organ after increasing the pulmonary venous pressure by 7.5 mmHg, and the peak ventilation pressure was found. After completion of these measurements, the left main bronchus was ligated in the end-inspiratory position and a bronchoalveolar lavage (BAL) was performed on the right lung. Subsequently, the large vessels and airways of the right lung were dissected off and the organ was homogenized. The left lung was perfusion-fixed with 4% formalin solution while maintaining a pressure gradient of 25 cm H2O and was then stored in 4% formalin until embedded. Firstly, the cells were removed from the BAL, counted and differentiated via a Papenheim stain. The cell-free BAL supernatant was then aliquoted and submitted to further analysis of the surfactant and coagulation properties and a determination of the matrix metallo proteinases (MMPs) and their inhibitors (TIMPs) and of soluble collagen. Bronchoalveolar deposition of 1.8 U/kg of bodyweight of bleomycin led initially to development of an ARDS-like event, with a massive restriction of gas exchange (paO2/FiO2 of >500 mmHg in the controls reduced to ˜110 mmHg on day 4), ground-glass opacities over all sections of the lung in the HRCT and an increase of about 5-fold in the capillary filtration coefficient (cfc). In the later phase of bleomycin-induced lung damage there was then development of pronounced fibrosis which could be confirmed on the basis of the increase in soluble collagen in the BAL and the hydroxyproline in the tissue, on the basis of the histological specimens and of the HRCT findings. […] Consistent with this, a pronounced increase in the extracellular matrix and an alveolar and also interstitial ingress of fibroblasts was observable in the histological sections. […]

[2] = tested on: bleomycin-induced pulmonary fibrosis in rabbits; assay: Oxygenation index (PaO2/FiO2) in bleomycin-induced pulmonary fibrosis; type: in vivo, rabbit; settings: for effect on O2 saturation: FIG. 2; for oxygenation index (PaO2/FiO2), raised compared with the control (190): NO 20 ppm inhaled, sildenafil 1 mg/kg oral
Protocol: FIG. 2: Result of determination of the oxygenation index (arterial oxygen partial pressure/fraction of inspired oxygen [PaO2/FiO2]) measured in the model of bleomycin-induced pulmonary fibrosis in rabbits. Whereas systemic PGI (6 ng/kg body weight/min] (PGI, prostacyclin) reduces the oxygenation index by 60% compared with the control (190), the oxygenation index was markedly raised by inhaled NO [20 ppm] by 28% and sildenafil (oral) [1 mg/kg body weight] by 31%.
Healthy rabbits of both sexes were pretreated orally with a gyrase inhibitor (Baytril®) for one week. Ten animals pretreated in this way were not treated with bleomyin and served as control, and, on the day of exposure, the others were anaesthetized with a Ketanest®/Rompun® mixture, intubated intratracheally and ventilated mechanically. An ultrasonic nebulizer (MMAD 2.5 μm) was used to administer by inhalation exactly 1.8 U/kg of bodyweight of bleomycin under volume-controlled ventilation. After 4, 8, 16, 24, 32 and 64 days (in each case n≧5) post exposure, the animals were again anaesthetized, provided with an arterial access (right carotid artery) and underwent bodyweight-adapted ventilation via a tracheostomy in a volume-controlled method. The arterial pO2 and pCO2, and the static compliance of the lung were measured (by recording the intrathoracic pressure and with slow inflation/deflation manoeuvres). Subsequently, the lungs of these animals were dissected and perfused with a Krebs Hensefeit buffer. Under these conditions, the capillary filtraton coefficient (cfc) was then found from the weight gain of the organ after increasing the pulmonary venous pressure by 7.5 mmHg, and the peak ventilation pressure was found. After completion of these measurements, the left main bronchus was ligated in the end-inspiratory position and a bronchoalveolar lavage (BAL) was performed on the right lung. Subsequently, the large vessels and airways of the right lung were dissected off and the organ was homogenized. The left lung was perfusion-fixed with 4% formalin solution while maintaining a pressure gradient of 25 cm H2O and was then stored in 4% formalin until embedded. Firstly, the cells were removed from the BAL, counted and differentiated via a Papenheim stain. The cell-free BAL supernatant was then aliquoted and submitted to further analysis of the surfactant and coagulation properties and a determination of the matrix metallo proteinases (MMPs) and their inhibitors (TIMPs) and of soluble collagen. Bronchoalveolar deposition of 1.8 U/kg of bodyweight of bleomycin led initially to development of an ARDS-like event, with a massive restriction of gas exchange (paO2/FiO2 of >500 mmHg in the controls reduced to ˜110 mmHg on day 4), ground-glass opacities over all sections of the lung in the HRCT and an increase of about 5-fold in the capillary filtration coefficient (cfc). In the later phase of bleomycin-induced lung damage there was then development of pronounced fibrosis which could be confirmed on the basis of the increase in soluble collagen in the BAL and the hydroxyproline in the tissue, on the basis of the histological specimens and of the HRCT findings. […] Consistent with this, a pronounced increase in the extracellular matrix and an alveolar and also interstitial ingress of fibroblasts was observable in the histological sections. Besides the homogeneously distributed zones of fibrosis there were also thin hyperdistended sections of lung with a honeycomb appearance.
Systemically administered PGI (vasodilatator) increased the shunting to about 30%. […] The data for O2 saturation (FIG. 2) correspond directly.

[3] = tested on: patients with chronic thromboembolism and displaying secondary PHT; assay: Pulmonary vascular resistance (delta PVR, right cardiac catheterization) in patients with chronic thromboembolism; type: in vivo, human; settings: for effect on pulmonary vascular resistance: 7 patients with CTEPH; for vascular resistance (PVR), reduction: 7 patients, PGI i.v. 6 ng/kg/min, NO 20 ppm inhaled, sildenafil 50 mg oral
Protocol: FIG. 4: Result of measurement of the arterial oxygen partial pressure (PaO2) on 7 patients with chronic thromboembolism and displaying secondary PHT (pulmonary hypertension). The arterial oxygen partial pressure was improved by NO (inhaled) [20 ppm] and sildenafil (oral) [50 mg] by respectively 1.8% and 7.6%, whereas the oxygen saturation fell by 13% after administration of PGI (intravenous). In the same experiment, the vascular resistance was measured and determined as delta PVR by a right cardiac catheterization. The vascular resistance was reduced respectively by 25%, 19% and 21% after administration of PGI (intravenous) [6 ng/kg bodyweight/min], NO (inhaled) [20 ppm] and sildenafil (oral) [50 mg].
(§1) 7 patients with CTEPH underwent a Swan-Ganz catheter investigation with measurement of the ventilation/perfusion (V/Q) distribution (using the multiple inert gas elimination technique (MIGET)). After determination of the baseline parameters (haemodynamics and gas exchange), all the patients initially inhaled 20 ppm NO, followed by a second baseline period (10-15 min), and then PGI was infused (6 ng/kg bodyweight/min), again followed by a second baseline period (10-15 min) and then an oral dose of 50 mg of sildenafil was given (120-150 min follow-up). 3 of the 7 patients were controlled by continuous nasal oxygen therapy in order to reach an arterial oxygenation of >88%. The following parameters were measured under baseline conditions: mean pulmonary arterial pressure (mPAP) 52.1 +/−3.3 mmHg, cardiac index (CI) 2.2+/−0.1 |* min^−1*m^−2, pulmonary vascular resistance index (PVRI) 1703.8+/−129.5 dyn*s*cm^−6*m^2, arterial pO2 72.5+/−3.3 mmHg and mixed venous oxygen saturation (SvO2) of 63.4+/−2.2%.

[4] = tested on: patients with ILD displaying secondary PHT; assay: Arterial oxygen partial pressure (delta PaO2) in patients with ILD; type: in vivo, human; settings: 7 patients with ILD; for arterial oxygen partial pressure (delta PaO2) / O2 saturation, increase: NO 20 ppm inhaled, sildenafil 50 mg oral
Source text: FIG. 6: Result of determination of the arterial oxygen partial pressure (PaO2) on 7 patients with ILD displaying secondary PHT (pulmonary hypertension) measured as delta PaO2.
as §1, with “ILD” for “CTEPH”, “5” for “3”, “39.6+/−2.8 mmHg and” for “52.1 +/−3.3 mmHg, cardiac index (CI) 2.2+/−0.1 |* min^−1*m^−2,”, “1255+/−215 dyn*s*cm−5*m^2.” for “1703.8+/−129.5 dyn*s*cm^−6*m^2, arterial pO2 72.5+/−3.3 mmHg and mixed venous oxygen saturation (SvO2) of 63.4+/−2.2%.”

Compound: CCCCC[C@H](O)/C=C/[C@@H]1[C@H]2C/C(=C/CCCC(=O)O)O[C@H]2C[C@H]1O [PGI, prostacyclin]
- shunting (MIGET), level reached [1]: about 30%
- effect on O2 saturation [2]: reduced O2 saturation
- oxygenation index (PaO2/FiO2), reduction compared with the control (190) ([2]; PGI 6 ng/kg/min systemic): 60%
- effect on pulmonary vascular resistance [3]: marked reduction
- vascular resistance (PVR), reduction [3]: 25%
- arterial oxygen partial pressure / oxygen saturation, decrease ([4]; PGI intravenous 6 ng/kg/min): 12.5% and 12%

Compound: [N]=O [NO, nitric oxide]
- effect on shunting [1]: reduced the shunting
- shunting (MIGET), level reached [1]: 9%
- effect on O2 saturation [2]: marked increases in O2 saturation
- oxygenation index (PaO2/FiO2), raised compared with the control (190) [2]: 28%
- effect on pulmonary vascular resistance [3]: marked reduction
- vascular resistance (PVR), reduction [3]: 19%
- arterial oxygen partial pressure (delta PaO2) / O2 saturation, increase [4]: 5% and 4.8%

Compound: CCCc1nn(C)c2c(=O)[nH]c(-c3cc(S(=O)(=O)N4CCN(C)CC4)ccc3OCC)nc12 [sildenafil, 5-[2-ethoxy-5-(4-methyl-1-piperazinyl-sulphonyl)phenyl]-1-methyl-3-n-propyl-1,6-dihydro-7H-pyrazolo[4,3-d]pyrimidin-7-one]
- effect on shunting [1]: reduced the shunting even more than NO
- shunting (MIGET), level reached [1]: 6%
- effect on O2 saturation [2]: marked increases in O2 saturation
- oxygenation index (PaO2/FiO2), raised compared with the control (190) [2]: 31%
- effect on pulmonary vascular resistance [3]: marked reduction
- vascular resistance (PVR), reduction [3]: 21%
- arterial oxygen partial pressure (delta PaO2) / O2 saturation, increase [4]: 15% and 13%
